Among the data in the supplement of paper PMC6723410 are viability values, retold here.

SMILES strings stand for the structures. Values joined by “and” are separate entries in the source; they are usually repeats but may differ in a detail not shown here. Identical values can stand only once.

The first assay concerns GUMC-403. The assay can be described thus: viability at highest tested concentration (max response) relative to DMSO (% of DMSO control); higher = less cytotoxic. Conditions: library / dose series: MIPE library, 11-point 1:3 dilution; top concentration 27.2 µM; 48 h. Put shortly: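 Plates of 1536 wells were seeded with 700 patient-derived GUMC-403 papilloma cells per well, grown by conditional reprogramming, in 5 μL F + Y medium and kept overnight at 37 °C. Compounds followed at 23 nL by pin tool over an 11-point 1:3 series, for 48 h. After a CellTiter-Glo luminescence read on a ViewLux, signals were set against vehicle wells as 100% and empty wells as 0%. The reported number is viability at the highest tested concentration relative to vehicle control.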
Consider `CN1[C@@H]2CC(OC(=O)[C@@H](CO)c3ccccc3)C[C@H]1[C@H]1O[C@H]12` (stereo not given in full), for which the viability was 131.

Still in this assay, the particulars now being: library / dose series: MIPE library, 11-point 1:3 dilution; top concentration 46.1 µM; 48 h.
Compound `O=C1[C@H](Cc2ccc(O)cc2)N2C(=O)CCN(C(=O)NCc3ccccc3)[C@H]2CN1Cc1cccc2ccccc12` showed a viability of 78.2. The compound `COc1cccc(OC)c1-c1cc(C(=O)NC2(C(=O)O)C3CC4CC(C3)CC2C4)nn1-c1ccnc2cc(Cl)ccc12` (stereo not given) had a viability of 124.

Regarding `CCNC(=O)Nc1ccc2ncc(Nc3ccc(C)cc3)nc2n1`, the viability was 108. Compound `COc1ccc(-c2nc3cc(C4=NNC(=O)CC4C)ccc3[nH]2)cc1` (stereo not given) came in with a viability of 119. As for `Cc1cc(O)c2c3c4c(cc(O)c13)C(C)(C)C(=O)c1c(O)cc(O)c(c1-4)C2=O`, the viability was found to be 104. Still for that read-out and setting: the same measure for `Oc1c(Cl)cc(Cl)c2cccnc12`: 128; for `CCc1nc(N)nc(N)c1-c1ccc(Cl)cc1`: 97.1. On to `CCN(CC)CC#CCOC(=O)C(O)(c1ccccc1)C1CCCCC1` (stereo not given), for which the viability is 127. `CCNC(=O)C[C@@H]1\N=C(C2=CC=C(Cl)C=C2)/C3=C(C=CC(=C3)OC)[N]4C(=NN=C14)C` showed a viability of 79.8.

Compound `CO/N=C(\C(=O)N[C@@H]1C(=O)N2C(C(=O)OCOC(=O)C(C)(C)C)=C(/C=C\c3scnc3C)CS[C@H]12)c1csc(N)n1` yielded a viability of 137. The compound `C[C@]12CCC(=O)C=C1CC[C@@H]1[C@@H]2[C@@H](O)C[C@@]2(C)[C@H]1CC[C@]2(O)C(=O)CO` came in with a viability of 135. In turn, `Cc1c[nH]c(-c2cnc(NCCNc3ccc(C#N)cn3)nc2-c2ccc(Cl)cc2Cl)n1` registered a viability of 77.1.

In turn, `COC1=CC(=C2C(=O)N(COC/3=C/C(=O)N4\C=C/C=C(OCCN5CCCCC5)\C4=N3)[S+]([O-])(=O)C2=C1)C(C)C` displayed a viability of 122. The same measure, in the same setting: as for `CCN(CC)C(=O)C1=CC=C(C=C1)C/2=C/C3(CCNCC3)OC4=CC=CC(=C24)O`, the figure is 125; as for `CN(C)C/C=C/C(=O)Nc1cc2c(Nc3ccc(F)c(Cl)c3)ncnc2cc1O[C@H]1CCOC1`, 41.7. Still for that read-out and setting: as for `COc1cc2c(cc1OC)CN(CCc1ccc(NC(=O)c3cccc4c(=O)c5cccc(OC)c5[nH]c34)cc1)CC2`, the figure is 132; as for `CC/1=C(/N2[C@H](SC1)[C@H](NC(=O)C(N)C3=CC=CC=C3)C2=O)C(O)=O` (stereo not given in full), 106; as for `CC(C)Oc1ccc(C(=O)N[C@H](CNC(=O)CN(C)C)Cc2ccc(-c3cn4cccc([C@H](C)O)c4n3)cc2)cc1Cl`, 98.1. For `NNCCc1ccccc1`, the viability came out at 109. On the same count and under the same terms, as for `OC(=O)C/1=C/C(=O)NC(=O)N1`, the figure is 122; as for `O=C(NC1CC1)c1cccc(-c2ccc3c(NC(=O)C4CC4)n[nH]c3c2)c1`, 110.

In turn, `COc1ccc(CCC(=O)c2c(O)cc(O[C@@H]3O[C@H](CO)[C@@H](O)[C@H](O)[C@H]3O[C@@H]3O[C@@H](C)[C@H](O)[C@@H](O)[C@H]3O)cc2O)cc1O` displayed a viability of 57.9. `O=C(O)CCCc1c[nH]c2ccccc12` displayed a viability of 107. In turn, `CC(C)(C)NC(=O)Nc1cccc(Nc2ncc(F)c(NC(C)(C)CO)n2)c1` had a viability of 121. In turn, `O=C1CSC(=O)N1C(CCc1ccncc1)COc1ccc(-c2cccc([N+](=O)[O-])c2)cc1` (stereo not given) registered a viability of 79.8.

For the compound `CCCCC(C)(C)[C@H](O)/C=C/[C@H]1[C@H](O)CC(=O)[C@@H]1C/C=C\CCCC(=O)O`, the viability came to 104. The same measure, in the same setting: the same measure for `N#CC1(c2cccc(C(=O)Nc3cc(Oc4ccc5nc(NC(=O)C6CC6)sc5n4)ccc3F)c2Cl)CC1`: 71.8; for `C1COC(NC(C2CC2)C2CC2)=N1`: 91.2.

For `CC(Oc1ccc(O)cc1)(P(=O)(O)O)P(=O)(O)O`, the viability stood at 112. Consider `C[C@]12CC[C@@H]3c4ccc(O)cc4CC[C@H]3[C@@H]1CC[C@@H]2O`, for which the viability was determined as 86.3. On the same count and under the same terms, as for `CC(=O)[C@H]1CC[C@H]2[C@@H]3CCC4=CC(=O)CC[C@]4(C)[C@H]3CC[C@]12C`, the figure is 118; as for `CCNC(=O)[C@H]1O[C@@H](n2cnc3c(N)nc(NCCc4ccc(CCC(=O)O)cc4)nc32)[C@H](O)[C@@H]1O`, 112; as for `Cc1ccccc1C(C(=O)NC1CCCCC1)N(C(=O)Cn1ccnc1C)c1cccc(F)c1` (stereo not given), 120. For the compound `C[C@@H]1C[C@H]2[C@@H]3CC\C4=C\C(=O)\C=C/[C@]4(C)[C@@]3(Cl)[C@@H](O)C[C@]2(C)[C@@]1(OC(=O)C5=CC=CO5)C(=O)CCl`, the viability is 133.

In turn, `OCCC#Cc1nc(-c2ccc(F)cc2)c(-c2ccncc2)n1CCCc1ccccc1` yielded a viability of 64. On the same count and under the same terms, as for `OC1=C(Cl)C=C(N\C2=C(\C(=O)NC2=O)C3=C(C=CC=C3)[N+]([O-])=O)C=C1`, the figure is 103; as for `Cn1cnc2c(F)c(Nc3ccc(Br)cc3Cl)c(C(=O)NOCCO)cc21`, 73.7; as for `CN1C(=O)CCS(=O)(=O)C1c1ccc(Cl)cc1` (stereo not given), 104. On to `CC(C)OC(=O)OCOP(=O)(CO[C@H](C)Cn1cnc2c(N)ncnc21)OCOC(=O)OC(C)C.O=C(O)C=CC(=O)O`, for which the viability is 118 and 94.5. Take `Nc1nc(N)c(N=O)c(OCC2CCCCC2)n1`: the viability worked out at 88.3. As for `Oc1cc(-c2nc(-c3ccccc3)[nH]c2-c2ccncc2)ccc1Cl`, the viability worked out at 91.4. In turn, `OC[C@H]1OC(O)C[C@@H](O)[C@@H]1O` (stereo not given in full) had a viability of 126. `CNC(=O)CN1CCC(Oc2cc3c(Nc4cccc(Cl)c4F)ncnc3cc2OC)CC1` registered a viability of 61.1. `O=C(O)CCCCCC(=O)NN=C1CCCC1` displayed a viability of 108. `O=C(/C=C/c1ccc(/C=C/C(=O)Nc2ccc(C3=NCCN3)cc2)cc1)Nc1ccc(C2=NCCN2)cc1`: the viability was found to be 117. Compound `N[C@@H](Cc1ccc(O)c(O)c1)C(=O)O` registered a viability of 133. In turn, `C[C@@H](O)[C@@H]1[C@H]2[C@@H](C)\C(=C(/N2C1=O)C(=O)OCOC(=O)C(C)(C)C)SC3CN(C3)/C4=N/CCS4` registered a viability of 78.1.

The compound `Cn1cc(/C=C/C(=O)c2cccc(F)c2)cc1/C=C/C(=O)NO` came in with a viability of 103.

`OC1=CC(=C(C=C1)\C2=C(O)\C(=O)C3=C(O2)C=C(O)C=C3O)O` yielded a viability of 93.9. `CC(C)(C)C(=O)Oc1ccc([S+](=O)([O-])Nc2ccccc2C(=O)NCC(=O)O)cc1` displayed a viability of 113.

In the case of `O=C(CCCCCCC(=O)Nc1cccnc1)NO`, the viability is 111. On the same count and under the same terms, the same measure for `CC(C)(C)c1cc(NC(=O)Nc2ccc(-c3cn4c(n3)sc3cc(OCCN5CCOCC5)ccc34)cc2)no1`: 121; for `CN\1C(=O)/C(=C(\N=C1N2CCCC[S+]2([O-])=O)C(=O)NCC3=CC=C(F)C=C3)O`: 121. Compound `Cc1ccc(NC(=O)c2ccc(CN3CCN(C)CC3)cc2)cc1Nc1nc(-c2cccnc2)cs1` showed a viability of 130. With `OCCN1CCN(CCCN2c3ccccc3Sc3ccc(C(F)(F)F)cc32)CC1`, the viability stood at 97.2. `COC(=O)Nc1nc2cc(C(=O)c3cccs3)ccc2[nH]1` came in with a viability of 105. For `CCC(=O)O[C@@]1(CC[C@H]2[C@@H]3CCC/4=C/C(=O)CC[C@]4(C)[C@H]3CC[C@]12C)C(=O)CO`, the viability was determined as 119.

Turning to `N[S+](=O)([O-])c1cc2c(cc1Cl)NCN[S+]2(=O)[O-]`, the viability stood at 108. In turn, `CCOC(=O)[C@H](CCc1ccccc1)N[C@H]1CCc2ccccc2N(CC(=O)O)C1=O` came in with a viability of 124. Compound `CO/N=C(/C(=O)N[C@@H]1C(=O)N2C(C(=O)O)=C(Cn3ccc(=N)n3CCO)CS[C@H]12)c1csc(N)n1` yielded a viability of 109. For the compound `O=C(O)c1ccc(-c2c[nH]c3ncc(-c4ccccc4)cc23)cc1C1CCCC1`, the viability came out at 145.

As to `CCOC(=O)c1ccc(C#Cc2ccc3c(c2)C(C)(C)CCS3)nc1`, the viability is 118.

`NC/1=N/C(=O)N/C=C1F`: the viability was 104. Turning to `CC[C@@H]([C@H](C)O)n1ncn(-c2ccc(N3CCN(c4ccc(OCC5CO[C@@](Cn6cncn6)(c6ccc(F)cc6F)C5)cc4)CC3)cc2)c1=O` (stereo not given in full), the viability is 101. For `COC1=C(OC)C(=O)C(C/C=C(\C)CC/C=C(\C)CC/C=C(\C)CC/C=C(\C)CC/C=C(\C)CC/C=C(\C)CC/C=C(\C)CC/C=C(\C)CC/C=C(\C)CCC=C(C)C)=C(C)C1=O`, the viability is 118. The same measure, in the same setting: as for `C=C[C@H]1CN2CCC1C[C@@H]2[C@@H](O)c1ccnc2ccccc12` (stereo not given in full), the figure is 66.8; as for `COc1cc2c(cc1OC)CN(CCc1ccc(NC(=O)c3cc(OC)c(OC)cc3NC(=O)c3cnc4ccccc4c3)cc1)CC2`, 100.

Turning to `NC/1=N/C(=O)C2=C([NH]C=C2CCC3=CC=C(C=C3)C(=O)N[C@@H](CCC(O)=O)C(O)=O)N1`, the viability stood at 119. On the same count and under the same terms, the same measure for `CC[C@H](CC[C@@H](C)[C@H]1CC[C@H]2[C@@H]3C\C=C/4C[C@@H](O)CC[C@]4(C)[C@H]3CC[C@]12C)C(C)C`: 101; for `Oc1ccc2ccccc2c1SSc1c(O)ccc2ccccc12`: 129; for `O=C(O)COCCN1CCN(C(c2ccccc2)c2ccc(Cl)cc2)CC1` (stereo not given): 117. The same measure, in the same setting: the same measure for `NNc1nncc2ccccc12`: 117.

`N#Cc1ccc(C(c2ccc(C#N)cc2)n2cncn2)cc1`: the viability amounted to 95.7. `N\C1=N\C2=C(N=C[N]2COC(CO)CO)C(=O)N1` returned a viability of 43.9.
